From patent US10208034B2, “Quinoline derivative” (ONO PHARMACEUTICAL CO., LTD., priority 2014, dated 2019)

How the values were obtained:
Ba/F3 Axl = molecular target: T1, Ba/F3 Axl (Homo sapiens, UniProt P30530); assay: Proliferation suppression rate using mouse pro-B cell line (Ba/F3 Axl) stably expressing Axl (CellTiter-Glo); format: cell-based; conditions: Ba/F3 Axl cells, 48 hours, read-out: IC50 value of proliferation suppression, Ba/F3 Axl
T1 sequence (P30530 1-894): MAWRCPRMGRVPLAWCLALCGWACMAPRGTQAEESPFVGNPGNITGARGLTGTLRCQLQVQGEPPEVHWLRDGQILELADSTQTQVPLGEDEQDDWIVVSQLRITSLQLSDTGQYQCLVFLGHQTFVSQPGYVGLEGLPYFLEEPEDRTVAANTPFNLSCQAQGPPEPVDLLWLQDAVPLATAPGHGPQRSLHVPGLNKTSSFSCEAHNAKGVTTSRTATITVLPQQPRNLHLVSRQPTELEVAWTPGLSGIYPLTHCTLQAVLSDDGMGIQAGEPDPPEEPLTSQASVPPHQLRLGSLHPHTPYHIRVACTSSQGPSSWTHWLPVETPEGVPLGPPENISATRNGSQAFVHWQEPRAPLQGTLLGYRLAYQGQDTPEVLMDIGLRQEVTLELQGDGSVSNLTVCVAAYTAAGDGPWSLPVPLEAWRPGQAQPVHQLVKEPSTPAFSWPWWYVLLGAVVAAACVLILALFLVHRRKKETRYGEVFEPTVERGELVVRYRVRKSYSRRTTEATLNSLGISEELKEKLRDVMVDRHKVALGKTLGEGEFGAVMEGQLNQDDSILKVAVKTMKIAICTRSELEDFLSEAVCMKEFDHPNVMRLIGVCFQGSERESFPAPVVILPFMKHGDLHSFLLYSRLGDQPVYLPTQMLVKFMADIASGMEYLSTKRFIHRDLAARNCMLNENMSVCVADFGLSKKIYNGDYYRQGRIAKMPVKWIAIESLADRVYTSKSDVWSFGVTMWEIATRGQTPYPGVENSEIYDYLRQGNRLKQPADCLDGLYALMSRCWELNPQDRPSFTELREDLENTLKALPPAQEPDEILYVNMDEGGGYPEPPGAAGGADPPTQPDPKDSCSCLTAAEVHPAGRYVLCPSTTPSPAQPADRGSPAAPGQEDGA
Description: A 0.1 mmol/L DMSO solution of the test compound was dispensed into a 96-well plate, and a 3-fold dilution series was prepared using DMSO. DMSO solutions of test compounds, having various concentrations, were further 500-fold diluted with a RPMI1640 medium (containing 10% HI-FBS, 1% penicillin) and a diluted solution of the test compound having […] with respect to the final concentration was prepared. In each well of the 96-well plate (BD Biosciences) for measurement, 50 μL of a RPMI medium was added to the Blank group, 50 μL of a RPMI medium containing 0.2% DMSO was added to the medium group, and 50 μL of the diluted solution of the test compound was added to the test compound group, respectively. Ba/F3 Axl was diluted with a medium to have a density of 2×10^5 cells/mL to prepare a cell suspension. In each well of the 96-well plate for measurement, 50 μL each of the RPMI medium was added to the Blank group, and 50 μL each of the cell suspension to the medium group and the test compound group, respectively, and the groups were stood still at 37° C. at 5% CO2 for 48 hours. After standing still, Relative Light Unit (RLU) was measured by using CELLTITER-GLO (registered trademark) LUMINESCENT CELL VIABILITY ASSAY (Promega). The measurement was carried out according to the attached instruction. To each well, 100 μL each of light-emitting solution was added. The plate was stirred at room temperature for 3 min and then stool still at room temperature with light shielded for 10 min, and RLU was measured by using Microplate Reader (SpectraMax M5e, Molecular Devices). The average values of RLU of the Blank group and the medium group were respectively calculated, and the proliferation suppression rate of the test compound group was calculated. Proliferation suppression rate (%)={1−(RLU of test compound group−A)/(B−A)}×100 [Math. 2] A: average value of RLU of Blank group B: average value of RLU of medium group
A value of 50% inhibition rate (IC50 value) of the test compound was calculated from the inhibition curve based on the inhibition rate in each concentration of the test compound.

KDR kinase = KDR kinase (Homo sapiens, UniProt P35968); assay: Evaluation of kinase selectivity (KDR kinase IC50 versus Axl IC50, in vitro test); format: biochemical; conditions: Axl selective inhibitory activity with respect to KDR kinase, ratio of IC50 values
KDR kinase, sequence (P35968 20-1356): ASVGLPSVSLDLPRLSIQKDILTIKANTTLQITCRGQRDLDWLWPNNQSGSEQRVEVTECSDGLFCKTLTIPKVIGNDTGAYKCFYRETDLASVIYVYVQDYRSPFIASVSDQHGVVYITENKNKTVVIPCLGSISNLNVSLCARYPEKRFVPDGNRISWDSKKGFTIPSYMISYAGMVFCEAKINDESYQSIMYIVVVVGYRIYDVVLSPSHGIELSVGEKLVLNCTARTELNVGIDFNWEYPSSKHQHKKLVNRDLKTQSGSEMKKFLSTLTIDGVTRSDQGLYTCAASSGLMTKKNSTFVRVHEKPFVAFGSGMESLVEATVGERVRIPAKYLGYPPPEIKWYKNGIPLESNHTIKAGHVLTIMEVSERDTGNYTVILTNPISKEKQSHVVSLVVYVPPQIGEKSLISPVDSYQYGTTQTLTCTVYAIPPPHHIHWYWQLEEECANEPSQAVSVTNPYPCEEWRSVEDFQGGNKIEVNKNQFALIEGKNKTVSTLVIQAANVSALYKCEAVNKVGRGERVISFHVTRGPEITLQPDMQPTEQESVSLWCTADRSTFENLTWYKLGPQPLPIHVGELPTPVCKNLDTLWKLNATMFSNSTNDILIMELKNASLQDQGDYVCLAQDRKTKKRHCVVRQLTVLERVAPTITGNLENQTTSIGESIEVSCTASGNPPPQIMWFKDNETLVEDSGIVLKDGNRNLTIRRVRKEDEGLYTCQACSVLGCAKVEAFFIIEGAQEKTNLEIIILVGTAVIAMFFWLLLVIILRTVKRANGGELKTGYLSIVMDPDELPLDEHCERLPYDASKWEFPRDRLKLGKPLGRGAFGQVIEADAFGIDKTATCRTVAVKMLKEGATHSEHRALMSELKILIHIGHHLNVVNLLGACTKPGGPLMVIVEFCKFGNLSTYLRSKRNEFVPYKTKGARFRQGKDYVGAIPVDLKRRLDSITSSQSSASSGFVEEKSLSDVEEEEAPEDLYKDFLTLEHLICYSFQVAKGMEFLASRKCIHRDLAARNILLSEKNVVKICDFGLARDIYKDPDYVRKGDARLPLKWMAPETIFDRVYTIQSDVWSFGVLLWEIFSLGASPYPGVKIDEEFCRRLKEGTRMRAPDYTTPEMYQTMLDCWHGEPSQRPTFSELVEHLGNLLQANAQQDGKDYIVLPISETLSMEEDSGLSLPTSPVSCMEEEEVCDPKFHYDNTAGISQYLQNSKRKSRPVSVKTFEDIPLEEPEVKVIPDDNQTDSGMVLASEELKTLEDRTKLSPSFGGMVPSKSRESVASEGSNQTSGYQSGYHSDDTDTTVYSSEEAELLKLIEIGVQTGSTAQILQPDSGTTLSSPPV
Description: Similar to Biological Example 1, values of 50% inhibition rate (IC50 value) with respect to the KDR kinase of the test compound was measured. The Axl selective inhibitory activity of the test compound with respect to KDR kinase was calculated based on the above-mentioned ratio of the IC50 values. As the test compounds, for the compounds of the present invention, the compounds of Examples 21, 42, 66, and 28 were used, and for the comparative compounds, the compound of Example 74 (Comparative compound B) and the compound of Example 92 (Comparative compound C) described in Patent Literature 5, having the following structure, were used.

| GI50 (Ba/F3 Axl) | KDR [IC50]/Ax1 [IC50] (KDR kinase) | SMILES |
| --- | --- | --- |
| 0.96 nM | about 149 times | COc1cc2nccc(Oc3ccc(NC(=O)c4cc(C(C)=O)cn(-c5ccccc5)c4=O)nc3)c2cc1OC [Example 21, 5-acetyl-N-{5-[(6,7-dimethoxy-4-quinolinyl)oxy]-2-pyridinyl}-2-oxo-1-phenyl-1,2-dihydro-3-pyridinecarboxamide] |
| 0.99 nM | about 294 times | COc1cc2nccc(Oc3ccc(NC(=O)c4cc5ccncc5n(-c5ccccc5)c4=O)nc3)c2cc1OC [Example 28, N-{5-[(6,7-dimethoxy-4-quinolinyl)oxy]-2-pyridinyl}-2-oxo-1-phenyl-1,2-dihydro-1,7-naphthyridine-3-carboxamide] |
| 4.2 nM | about 2857 times | COc1cc2nccc(Oc3ccc(NC(=O)c4c5c(cn(-c6ccccc6)c4=O)C(=O)CCC5)nc3)c2cc1OC [Example 42, N-{5-[(6,7-dimethoxy-4-quinolinyl)oxy]-2-pyridinyl}-3,8-dioxo-2-phenyl-2,3,5,6,7,8-hexahydro-4-isoquinolinecarboxamide] |
| 5.7 nM | about 1401 times | COc1cc2nccc(Oc3ccc(NC(=O)c4cc5c(n(-c6ccccc6)c4=O)CCCNC5=O)nc3)c2cc1OC [Example 66, N-{5-[(6,7-dimethoxy-4-quinolinyl)oxy]-2-pyridinyl}-2,5-dioxo-1-phenyl-2,5,6,7,8,9-hexahydro-1H-pyrido[3,2-c]azepine-3-carboxamide] |
